Results published in patent publication US20070111258A1, “Compositions and methods for modulating the acute phase response” (priority 2005, published 2007).

What was measured:
[1] = test system: CREBH and ATF6 heterodimers; assay: IP-Western blot of CREBH and ATF6 interaction in 293T cells; format: cell-based, human; settings: 293T cells expressing flag-tagged CREBH; 8 hours after Tm treatment
Experimental: FIG. 11 depicts the synergistic interaction of CREBH with ATF6 to activate transcription of the major APR genes. (A) Luciferase reporter analysis of trans-activation effects of CREBH on promoters of the murine SAP gene and the human CRP gene in H2.35 cells. H2.35 cells in a 35 mm collagen-coated plate were co-transfected with a control vector or a CREBH expression vector (0.25 μg), the luciferase reporter (0.6 μg) and pcDNA3-LacZ (0.25 μg), and were then cultured in the absence or presence of Tm (5 μg/ml) for 10 hours. (B) CREBH-DN efficiently suppresses CREBH trans-activation on the murine SAP and the human CRP promoters. […] (C) Interaction between ATF6 and CREBH was determined by IP-Western blot analysis. […] Expression levels of CREBH in the transfected cells were determined by Western blot analysis of total cell lysates using the anti-flag antibody (lower panel). […]
For analysis of expression and cleavage of CREBH protein, total cell lysates were prepared from H2.35 cells or COS7 cells using Nonidet P-40 lysis buffer (1% NP-40, 50 mM Tris-HCl at pH 7.5, 150 mM NaCl, 0.05% SDS) supplemented with protease inhibitors (Complete Mini from Roche Applied Science), 0.1 mM sodium vanadate, and 1 mM sodium fluoride. […] The total cell lysate, membrane and nuclear fractions were subjected to SDS-PAGE and then analyzed by Western blot using anti-flag monoclonal antibody or other antibodies. […]

ApoB mRNA = assay: Endogenous ApoB mRNA in mouse liver; format: in vivo; settings: Tm 2 μg/gram body weight i.p.; liver at 24 hours
Experimental: C57BL/6J mice at 3-months of age were injected intraperitoneally with Tm (2 μg/gram body weight) in 150 mM dextrose solution. Mice were injected with the same volume of dextrose solution as a control. Liver tissue were collected from mice at 24 hours after injection for RNA isolation. Quantitative real-time RT-PCR was used to determine the ApoB and the spliced XBP1 mRNA levels. Fold changes of mRNA induction were determined after normalization of the mRNA levels to internal control 18S ribosomal RNA levels. Data points are fold changes of the ApoB or spliced XBP1 mRNA levels for individuals, n=5 mice per injection.

tunicamycin [Tm]
interaction between CREBH and ATF6 [1]: significantly increased | induction of endogenous ApoB mRNA in mice (ApoB mRNA): only slightly increased
